Experimental data reported in patent US7928140B2, “Benzothiazole PI3 kinase modulators for cancer treatment” (Amgen Inc., priority 2007, dated 2011).

Legend:
[1] = system: phosphorylation of Serine 473 in Akt, HCT 116 human colon carcinoma cells; test: Cell-based phospho-AKT Ser473 assay (MSD sandwich immunoassay, IGF-1 stimulated); conditions: Homo sapiens, HCT-116, HCT 116 cells; read-out: HCT 116 pAKT IC50
Experimental: This assay determines the ability of test compounds to inhibit the phosphorylation of […] in Akt using a MSD based sandwich immunoassay (Meso Scale Detection, catalogue # N411CAB-1). […] Prior to the assay cells were detached from the culture flask with trypsin, and re-suspended in complete media to give a final concentration of 1.6×10^5 cells per ml. Aliquots (100 μl) of the HCT116 cell suspension were seeded into each well of a 96 well tissue culture plate (Corning Incorporated COSTAR, catalogue#3595) to give a final density of 16,000 cells per well. Cells were then incubated overnight at 37° C. The following day the cells were treated with serially diluted test compounds and incubated for 2 hours at 37° C. […] As a maximum response control, wells contained 0.5% DMSO in place of test compound. The plates were mixed at 700 rpm for 2 min to ensure even distribution of the test compound and incubated for 2 hours at 37° C. Cells were then stimulated with insulin-like growth factor 1 (Sigma, product #13769) at final concentration of 100 ng/ml for 15 minutes at 37° C. The media was then removed and the cells treated with 80 μl cell-lysis buffer (MSD) containing a cocktail of protease and phosphatase inhibitors for one hour at 4° C. […] The detection antibody was removed and plates were then washed four times with 200 μl per well of Tris wash buffer. An aliquot of 150 μl of diluted MSD read buffer was then applied to each well, and the electrochemiluminescent signal was measured using a MSD SECTORTM plate reader. This instrument measures the intensity of emitted light to determine a quantitative measure of phosphorylated Akt in each well. The dose-response data obtained with each compound were analyzed and the IC50 inhibition of Akt phosphorylation at Ser473 calculated.

PI3K β = biological target: T1, PI3K β (Homo sapiens, UniProt P42338); test: In vitro PI3 kinase enzyme assay (beta), ATP loss, bioluminescence; assay type: biochemical; conditions: read-out: PI3Kβ ATP loss IC50;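 further: purified p110β/p85 heterodimer with PtdIns(4,5)P2 as acceptor, incubated at room temperature, leftover ATP read by luminescence, inhibition scaled to compound-free wells with and without enzyme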
T1 construct: Full length p110 subunits of PI3K α, β and δ, N-terminally labeled with polyHis tag; polyHis (N); made in house; host or cells: Sf9 insect cells (baculovirus)
Experimental: (§1) Full length p110 subunits of PI3K α, β and δ, N-terminally labeled with polyHis tag, were co-expressed with p85 in baculovirus expression vectors in sf9 insect cells. P110/p85 heterodimers were purified by sequential Ni-NTA, Q-HP, and Superdex-100 chromatography. Purified α, β and δ isozymes were stored at −20° C. in 20 mM Tris, pH 8, 0.2M NaCl, 50% glycerol, 5 mM DTT, 2 mM Na cholate.
(§2) PI3K enzyme assays (alpha, beta, delta and gamma) were performed in 25 mL with the above final concentrations of components in white polypropylene plates (Costar catalogue #3355). Phosphatidyl inositol phosphoacceptor, PtdIns(4,5)P2 (eg. P4508) was obtained from Echelon Biosciences. The ATPase activity of the alpha and gamma isozymes was not greatly stimulated by PtdIns(4,5)P2 under these conditions and was therefore omitted from the assay of these isozymes. Test compounds were dissolved in DMSO and diluted with three-fold serial dilutions. The compound in DMSO (1 μL) was added per test well, and the inhibition relative to reactions containing no compound, with and without enzyme was determined. After assay incubation at RT, the reaction was stopped and residual ATP determined by addition of an equal volume of a commercial ATP bioluminescence kit (Perkin Elmer EasyLite) according to the manufacturer's instructions, and detected using an Analyst GT luminometer.

PI3K α = biological target: T2, PI3K α (Homo sapiens, UniProt P42336); test: In vitro PI3 kinase enzyme assay (alpha), ATP loss, bioluminescence; assay type: biochemical; conditions: read-out: PI3Kα ATP loss IC50;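 further: purified p110α/p85 heterodimer acting on PtdIns(4,5)P2 at room temperature, remaining ATP read by luminescence, inhibition scaled between compound-free wells with and without enzyme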
T2 construct: Full length p110 subunits of PI3K α, β and δ, N-terminally labeled with polyHis tag; polyHis (N); made in house; host or cells: Sf9 insect cells (baculovirus)
T2 sequence (P42336 whole entry, species assumed): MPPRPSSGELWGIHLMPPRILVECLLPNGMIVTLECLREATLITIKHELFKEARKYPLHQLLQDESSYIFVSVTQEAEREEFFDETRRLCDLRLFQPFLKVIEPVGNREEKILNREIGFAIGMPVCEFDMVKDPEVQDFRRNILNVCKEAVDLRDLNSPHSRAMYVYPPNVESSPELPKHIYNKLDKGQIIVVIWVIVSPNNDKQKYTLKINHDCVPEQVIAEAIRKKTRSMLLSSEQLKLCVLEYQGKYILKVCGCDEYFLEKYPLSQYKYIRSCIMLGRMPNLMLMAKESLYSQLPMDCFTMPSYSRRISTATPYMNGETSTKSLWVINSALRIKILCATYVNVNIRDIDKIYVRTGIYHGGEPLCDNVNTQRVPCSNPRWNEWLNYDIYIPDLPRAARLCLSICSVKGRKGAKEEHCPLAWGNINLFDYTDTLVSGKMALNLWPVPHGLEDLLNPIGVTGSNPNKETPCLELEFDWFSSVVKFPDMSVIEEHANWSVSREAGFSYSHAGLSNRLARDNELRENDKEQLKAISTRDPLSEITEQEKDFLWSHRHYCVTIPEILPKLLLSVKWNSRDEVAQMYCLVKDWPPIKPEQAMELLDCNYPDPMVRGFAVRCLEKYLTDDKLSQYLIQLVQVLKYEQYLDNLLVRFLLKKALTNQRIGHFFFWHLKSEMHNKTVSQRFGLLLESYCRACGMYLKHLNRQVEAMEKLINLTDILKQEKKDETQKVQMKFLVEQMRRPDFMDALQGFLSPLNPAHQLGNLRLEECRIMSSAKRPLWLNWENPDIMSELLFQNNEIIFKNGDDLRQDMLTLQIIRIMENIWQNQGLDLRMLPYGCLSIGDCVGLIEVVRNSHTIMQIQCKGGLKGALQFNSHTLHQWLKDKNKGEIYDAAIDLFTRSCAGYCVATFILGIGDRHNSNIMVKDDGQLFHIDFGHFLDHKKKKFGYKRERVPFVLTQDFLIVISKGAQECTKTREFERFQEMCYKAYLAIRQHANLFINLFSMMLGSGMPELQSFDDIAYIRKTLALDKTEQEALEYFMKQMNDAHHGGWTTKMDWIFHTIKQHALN
T2 sequence (P27986 whole entry partner, species assumed): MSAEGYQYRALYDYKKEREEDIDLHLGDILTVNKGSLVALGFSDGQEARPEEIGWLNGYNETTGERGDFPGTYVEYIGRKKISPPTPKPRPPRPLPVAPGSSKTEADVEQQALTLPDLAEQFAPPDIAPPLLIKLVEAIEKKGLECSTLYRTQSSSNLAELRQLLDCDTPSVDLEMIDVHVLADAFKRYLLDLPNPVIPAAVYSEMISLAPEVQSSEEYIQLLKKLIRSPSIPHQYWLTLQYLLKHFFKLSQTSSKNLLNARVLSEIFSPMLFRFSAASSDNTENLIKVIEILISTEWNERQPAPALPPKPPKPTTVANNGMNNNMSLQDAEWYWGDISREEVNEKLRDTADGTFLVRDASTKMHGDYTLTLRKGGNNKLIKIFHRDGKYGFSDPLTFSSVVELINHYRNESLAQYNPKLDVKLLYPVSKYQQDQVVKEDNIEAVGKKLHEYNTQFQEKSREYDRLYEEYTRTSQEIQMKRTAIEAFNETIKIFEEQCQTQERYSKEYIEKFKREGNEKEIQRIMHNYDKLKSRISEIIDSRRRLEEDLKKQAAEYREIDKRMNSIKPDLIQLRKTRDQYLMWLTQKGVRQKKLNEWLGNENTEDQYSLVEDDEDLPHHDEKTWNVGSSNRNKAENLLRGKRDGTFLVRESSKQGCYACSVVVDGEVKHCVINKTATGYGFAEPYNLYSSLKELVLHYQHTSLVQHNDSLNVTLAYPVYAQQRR
Experimental: as §1, §2

T1 sequence (P42338 whole entry): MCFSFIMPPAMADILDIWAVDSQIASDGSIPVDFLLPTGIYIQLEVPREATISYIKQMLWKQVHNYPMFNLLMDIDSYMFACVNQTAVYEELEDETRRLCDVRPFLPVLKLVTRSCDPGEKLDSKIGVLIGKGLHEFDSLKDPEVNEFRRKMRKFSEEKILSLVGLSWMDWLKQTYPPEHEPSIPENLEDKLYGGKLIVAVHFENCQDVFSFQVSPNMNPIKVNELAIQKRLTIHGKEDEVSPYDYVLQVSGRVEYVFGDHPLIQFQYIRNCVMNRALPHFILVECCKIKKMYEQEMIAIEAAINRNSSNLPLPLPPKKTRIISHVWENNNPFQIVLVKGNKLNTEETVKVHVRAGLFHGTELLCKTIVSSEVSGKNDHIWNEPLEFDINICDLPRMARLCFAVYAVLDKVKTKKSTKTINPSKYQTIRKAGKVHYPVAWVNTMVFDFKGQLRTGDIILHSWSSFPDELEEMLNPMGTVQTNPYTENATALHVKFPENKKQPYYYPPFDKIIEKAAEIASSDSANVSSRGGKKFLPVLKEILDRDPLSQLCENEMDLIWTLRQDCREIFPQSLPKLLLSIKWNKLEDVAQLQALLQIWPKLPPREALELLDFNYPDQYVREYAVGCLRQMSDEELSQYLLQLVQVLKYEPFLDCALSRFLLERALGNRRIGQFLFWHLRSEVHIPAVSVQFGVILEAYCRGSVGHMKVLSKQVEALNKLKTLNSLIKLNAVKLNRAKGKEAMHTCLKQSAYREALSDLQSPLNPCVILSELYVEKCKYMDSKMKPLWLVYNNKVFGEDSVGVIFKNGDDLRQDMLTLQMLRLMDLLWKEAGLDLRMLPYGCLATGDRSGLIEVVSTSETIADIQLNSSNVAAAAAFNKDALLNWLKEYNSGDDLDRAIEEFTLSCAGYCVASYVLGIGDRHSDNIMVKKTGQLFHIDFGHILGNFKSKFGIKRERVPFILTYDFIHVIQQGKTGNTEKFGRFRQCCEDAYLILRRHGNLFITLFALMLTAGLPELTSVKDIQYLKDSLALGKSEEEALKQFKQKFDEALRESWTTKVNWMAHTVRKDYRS
T1 sequence (P27986 whole entry partner): as the sequence (P27986 whole entry partner, species assumed) above

With CC(=O)Nc1nc2ccc(-c3ccnc(Sc4cccc(F)c4)n3)cc2s1 [Example 109, N-(6-(2-((3-fluorophenyl)sulfanyl)-4-pyrimidinyl)-1,3-benzothiazol-2-yl)acetamide] the IC50 [1] was 1840 nM and the IC50 (PI3K β) was 120 nM.

In the case of COc1ccc(S(=O)(=O)Nc2cncc(-c3ccc4nc(NC(C)=O)sc4c3)n2)cc1 [Example 118, N-(6-(6-(((4-methoxyphenyl)sulfonyl)amino)-2-pyrazinyl)-1,3-benzothiazol-2-yl)acetamide], the IC50 [1] is reported as 147 nM and the IC50 (PI3K β) is reported as 17.9 nM.

CC(=O)Nc1nc2ccc(-c3ccnc(N(C)S(=O)(=O)c4ccc(C)cc4)n3)cc2s1 [Example 90, N-(6-(2-(N,4-Dimethylphenylsulfonamido)pyrimidin-4-yl)benzo[d]thiazol-2-yl)acetamide] gave an IC50 [1] of 51.6 nM and an IC50 (PI3K β) of 48.8 nM.

Work on CC(=O)Nc1nc2ccc(-c3cnc(Cl)c(NS(=O)(=O)c4ccccc4)c3)cc2s1 [Example 181, N-(6-(6-chloro-5-(phenylsulfonamido)pyridin-3-yl)benzo[d]thiazol-2-yl)acetamide] yielded an IC50 [1] of 10.4 nM and an IC50 (PI3K β) of 14.5 nM.

CC(=O)Nc1nc2ccc(-c3cnc(Cl)c(NS(=O)(=O)c4cccc(Cl)c4)c3)cc2s1 [Example 185, N-(6-(6-chloro-5-(3-chlorophenylsulfonamido)pyridin-3-yl)benzo[d]thiazol-2-yl)acetamide] gave an IC50 [1] of 5.9 nM and an IC50 (PI3K β) of 8.1 nM.

Compound CC(=O)Nc1nc2ccc(-c3ccnc(OCc4cccc(F)c4)n3)cc2s1 [Example 12, N-(6-(2-((3-fluorobenzyl)oxy)-4-pyrimidinyl)-1,3-benzothiazol-2-yl)acetamide] has an IC50 [1] of 3930 nM and an IC50 (PI3K β) of 3960 nM.

With CC(=O)Nc1nc2ccc(-c3ccnc(NC(C)(C)c4ccccc4)n3)cc2s1 [Example 100] the IC50 [1] was 698 nM and the IC50 (PI3K β) was 595 nM.

CC(=O)Nc1nc2ccc(-c3cncc(O)c3)cc2s1 [Example 296, N-(6-(5-hydroxypyridin-3-yl)benzo[d]thiazol-2-yl)acetamide] gave an IC50 [1] of 418 nM.

With CC(=O)Nc1nc2ccc(-c3ccnc(NS(=O)(=O)c4cccc(F)c4)n3)cc2s1 [Example 82, N-(6-(2-(((3-fluorophenyl)sulfonyl)amino)-4-pyrimidinyl)-1,3-benzothiazol-2-yl)acetamide] the IC50 [1] was 3900 nM and the IC50 (PI3K β) was 304 nM.

COc1ccc(S(=O)(=O)Nc2cc(-c3ccc4nc(NC(C)=O)sc4c3)ccn2)cc1 [Example 217, N-(6-(2-(4-methoxyphenylsulfonamido)pyridin-4-yl)benzo[d]thiazol-2-yl)acetamide] gave an IC50 [1] of 71.1 nM and an IC50 (PI3K β) of 117 nM.

In the case of CC(=O)Nc1nc2ccc(-c3cnc(Cl)c(NS(=O)(=O)c4ccc(Cl)cc4)c3)cc2s1 [Example 180, N-(6-(6-chloro-5-(4-chlorophenylsulfonamido)pyridin-3-yl)benzo[d]thiazol-2-yl)acetamide], the IC50 [1] is reported as 12.6 nM and the IC50 (PI3K β) is reported as 8.7 nM.

Work on CC(=O)Nc1nc2ccc(-c3cncc(NC(C)(C)C)n3)cc2s1 [Example 227, N-(6-(6-(tert-butylamino)pyrazin-2-yl)benzo[d]thiazol-2-yl)acetamide] yielded an IC50 [1] of 362 nM.

COCC(=O)NCCOc1cncc(-c2ccc3nc(NC(C)=O)sc3c2)c1 [Example 298, N-(2-(5-(2-(N-actyl)aminobenzo[d]thiazol-6-yl)pyridin-3-yloxy)ethyl)-2-methoxyacetamide] gave an IC50 [1] of 1830 nM.

For CC(=O)Nc1nc2ccc(-c3ccnc(OCc4ccc(F)cc4)n3)cc2s1 [Example 39, N-(6-(2-((4-fluorobenzyl)oxy)-4-pyrimidinyl)-1,3-benzothiazol-2-yl)acetamide], the IC50 [1] was > 40000 nM and the IC50 (PI3K β) was 7910 nM.

In the case of CCN(c1nccc(-c2ccc3nc(NC(C)=O)sc3c2)n1)S(=O)(=O)c1ccc(OC)cc1 [Example 89, N-(6-(2-(N-Ethyl-4-methoxyphenylsulfonamido)pyrimidin-4-yl)benzo[d]thiazol-2-yl)acetamide], the IC50 [1] is reported as 692 nM and the IC50 (PI3K β) is reported as 442 nM.

CC(=O)Nc1nc2ccc(-c3cnc(Cl)c(NS(=O)(=O)c4ccc(C(F)(F)F)cc4)c3)cc2s1 [Example 190, N-(6-(6-chloro-5-(4-(trifluoromethyl)phenylsulfonamido)pyridin-3-yl)benzo[d]thiazol-2-yl)acetamide] was tested, and the IC50 [1] was 11.5 nM and the IC50 (PI3K β) was 7.4 nM.

With CC(=O)Nc1nc2ccc(-c3cccc(N(C)S(=O)(=O)c4ccc(C)cc4)n3)cc2s1 [Example 74, N-(6-(6-(N,4-Dimethylphenylsulfonamido)pyridin-2-yl)benzo[d]thiazol-2-yl)acetamide] the IC50 [1] was 85.9 nM and the IC50 (PI3K β) was 202 nM.

For CSc1nccc(-c2ccc3nc(NC(C)=O)sc3c2)n1 [Example 50, N-(6-(2-(methylsulfanyl)-4-pyrimidinyl)-1,3-benzothiazol-2-yl)acetamide], the IC50 [1] was 1050 nM and the IC50 (PI3K β) was 1180 nM.

With CC(=O)Nc1nc2ccc(-c3ccnc(SCc4ccccc4)n3)cc2s1 [Example 19, N-(6-(2-(benzylsulfanyl)-4-pyrimidinyl)-1,3-benzothiazol-2-yl)acetamide] the IC50 [1] was 670 nM and the IC50 (PI3K β) was 184 nM.

In the case of COc1ccc(S(=O)(=O)Nc2cc(-c3ccc4nc(NC(C)=O)sc4c3)cnc2C)cc1 [Example 116, N-(6-(5-(((4-methoxyphenyl)sulfonyl)amino)-6-methyl-3-pyridinyl)-1,3-benzothiazol-2-yl)acetamide], the IC50 [1] is reported as 9.3 nM and the IC50 (PI3K β) is reported as 12 nM.

Work on CC(=O)Nc1nc2ccc(-c3cnc(Cl)c(NS(=O)(=O)c4ccc(C(C)(C)C)cc4)c3)cc2s1 [Example 191, N-(6-(5-(4-tert-butylphenylsulfonamido)-6-chloropyridin-3-yl)benzo[d]thiazol-2-yl)acetamide] yielded an IC50 [1] of 2.6 nM and an IC50 (PI3K β) of 4.2 nM.

For CC(=O)Nc1nc2ccc(-c3ccnc(NS(=O)(=O)c4ccccc4F)n3)cc2s1 [Example 81, N-(6-(2-(((2-fluorophenyl)sulfonyl)amino)-4-pyrimidinyl)-1,3-benzothiazol-2-yl)acetamide], the IC50 [1] was 4950 nM and the IC50 (PI3K β) was 103 nM.

With CC(=O)Nc1nc2ccc(-c3ccc(Cl)nc3)cc2s1 [Example 297, N-(6-(6-chloropyridin-3-yl)benzo[d]thiazol-2-yl)acetamide] the IC50 [1] was 1190 nM.

In the case of CC(=O)Nc1nc2ccc(-c3ccnc(N(C)S(=O)(=O)c4ccccc4F)n3)cc2s1 [Example 92, N-(6-(2-(2-Fluoro-N-methylphenylsulfonamido)pyrimidin-4-yl)benzo[d]thiazol-2-yl)acetamide], the IC50 [1] is reported as 888 nM and the IC50 (PI3K β) is reported as 310 nM.

With CC(=O)Nc1nc2ccc(-c3ccnc(OCCCc4cccnc4)n3)cc2s1 [Example 1, N-(6-(2-(3-(pyridin-3-yl)propoxy)pyrimidin-4-yl)benzo[d]thiazol-2-yl)acetamide] the IC50 [1] was 1350 nM and the IC50 (PI3K β) was 3610 nM.

For CC(=O)Nc1nc2ccc(-c3cnc(Cl)c(NS(=O)(=O)c4cccc(C(C)(C)C)c4)c3)cc2s1 [Example 173, N-(6-(5-(3-tert-butylphenylsulfonamido)-6-chloropyridin-3-yl)benzo[d]thiazol-2-yl)acetamide], the IC50 [1] was 5.1 nM and the IC50 (PI3K β) was 6.9 nM.

In the case of CC(=O)Nc1nc2ccc(-c3cnc(Cl)c(NS(=O)(=O)c4ccc(F)cc4)c3)cc2s1 [Example 162, N-(6-(6-Chloro-5-(4-fluorophenylsulfonamido)pyridin-3-yl)benzo[d]thiazol-2-yl)acetamide], the IC50 [1] is reported as 10.4 nM.

With CC(=O)Nc1nc2ccc(-c3cncc(OC[C@H]4CCC(=O)N4)c3)cc2s1 [Example 294, N-(6-(5-(((R)-5-oxopyrrolidin-2-yl)methoxy)pyridin-3-yl)benzo[d]thiazol-2-yl)acetamide] the IC50 [1] was > 5000 nM.

For CC(=O)Nc1nc2ccc(-c3cncc(N(C)S(=O)(=O)c4ccc(F)cc4)c3)cc2s1 [Example 219, N-(6-(5-(4-fluoro-N-methylphenylsulfonamido)pyridin-3-yl)benzo[d]thiazol-2-yl)acetamide], the IC50 (PI3K α) was 375 nM and the IC50 (PI3K β) was 2930 nM.

CC(=O)Nc1nc2ccc(-c3cc(C)nc(N)n3)cc2s1 [Example 101, N-(6-(2-Amino-6-methylpyrimidin-4-yl)benzo[d]thiazol-2-yl)acetamide] was tested, and the IC50 (PI3K α) was 4190 nM and the IC50 (PI3K β) was 9990 nM.

In the case of CC(=O)Nc1nc2ccc(-c3cncc(N4CC5CCC(CC5)C4)n3)cc2s1 [Example 300, N-(6-(6-(3-aza-bicyclo[3.2.2]nonan-3-yl)pyrazin-2-yl)benzo[d]thiazol-2-yl)acetamide], the IC50 [1] is reported as 8940 nM.

For COCCOCOc1cc(-c2ccc3nc(NC(C)=O)sc3c2)cnc1C(F)(F)F [Example 293, N-(6-(5-((2-methoxyethoxy)methoxy)-6-(trifluoromethyl)pyridin-3-yl)benzo[d]thiazol-2-yl)acetamide], the IC50 (PI3K α) was 211 nM and the IC50 (PI3K β) was > 40000 nM.

Compound CC(=O)Nc1nc2ccc(-c3cccc(S(=O)(=O)c4cccc(F)c4)n3)cc2s1 [Example 67, N-(6-(6-((3-fluorophenyl)sulfonyl)-2-pyridinyl)-1,3-benzothiazol-2-yl)acetamide] has an IC50 (PI3K α) of 300 nM and an IC50 (PI3K β) of 3350 nM.
